Experimental data as given in PubChem BioAssay (NCI).
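All cell lines were grown in 96-well plates and treated with compound for 48 hours. The concentration for 50% growth inhibition is given as GI50. The concentration for full growth arrest is given as TGI.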

Experiments:
Experiment in all cases: NCI tumour cell line growth inhibition, 48 h
[1] = test system: DMS 114 small cell lung
[2] = test system: DMS 273 small cell lung
[3] = test system: IGROV1 ovarian
[4] = test system: KM20L2 colon
[5] = test system: LXFL 529 NSCLC
[6] = test system: M14 melanoma
[7] = test system: OVCAR-8 ovarian
[8] = test system: SF-295 CNS
[9] = test system: SNB-19 CNS
[10] = test system: SNB-75 CNS
[11] = test system: MDA-MB-435

Work on `Cc1cc2c(C)n(Cc3ccc(Cl)cc3Cl)nc2c(C#N)c1C` yielded a TGI [1] of over 100 µM, a TGI [2] of over 100 µM and a TGI [3] of over 100 µM. For the same compound, the TGI [4] was over 56.9 µM, the TGI [5] was over 100 µM and the TGI [6] was over 100 µM. For the same compound, the TGI [7] was over 100 µM, the TGI [8] was 60.9 µM and the TGI [9] was 45.7 µM. The TGI [10] was 62 µM.

`CCC1CN2CCc3cc(OC)c(OC)cc3C2CC1CC1c2cc(OC)c(OC)cc2CCN1C(=O)C1CCCN1C(=O)OCc1ccccc1` (configuration not stated) gave a TGI [1] of 26.9 µM, a TGI [2] of 30.3 µM and a TGI [3] of 33.4 µM. For the same compound, the TGI [4] was 31.4 µM, the TGI [5] was 29.9 µM and the TGI [6] was 30.9 µM. For the same compound, the TGI [7] was 31.7 µM, the TGI [8] was 30.4 µM and the TGI [9] was 73.5 µM. It also gave a TGI [10] of 28.3 µM.

Work on `C=C1CC[C@@H]2[C@](C)(COC(C)=O)[C@@H](O)CC[C@@]2(C)[C@@H]1COc1ccc2ccc(=O)oc2c1` yielded a GI50 [3] of over 100 µM, a TGI [3] of over 100 µM and a GI50 [6] of over 100 µM. It also gave a TGI [6] of over 100 µM, a GI50 [11] of over 100 µM and a TGI [11] of over 100 µM. For the same compound, the GI50 [7] was over 100 µM, the TGI [7] was over 100 µM and the GI50 [8] was 25.9 µM. For the same compound, the TGI [8] was 79.1 µM, the GI50 [9] was over 100 µM and the TGI [9] was over 100 µM. For the same compound, the GI50 [10] was 17.6 µM and the TGI [10] was over 100 µM.

`O=C(O)C1(P(=O)(O)O)CC1` gave a TGI [1] of over 100 µM, a TGI [2] of over 100 µM and a TGI [3] of over 100 µM. The TGI [4] was over 100 µM, the TGI [5] was over 100 µM and the TGI [6] was 76.4 µM. It also gave a TGI [7] of over 100 µM, a TGI [8] of over 100 µM and a TGI [9] of over 100 µM. For the same compound, the TGI [10] was over 100 µM.

`CCOC(=O)C(=O)Nc1c(CC)cccc1C(C)C` was tested, and the TGI [2] was over 100 µM, the TGI [3] was over 100 µM and the TGI [4] was over 100 µM. It also gave a TGI [5] of over 100 µM, a TGI [6] of over 100 µM and a TGI [7] of over 100 µM. It also gave a TGI [8] of over 100 µM, a TGI [9] of over 100 µM and a TGI [10] of over 100 µM.

Work on `CN1CCN(Cc2ccc(NC(=O)c3cncc(C#Cc4cnc(N)c5ccncc45)c3)cc2C(F)(F)F)CC1` yielded a GI50 [3] of 0.331 µM, a TGI [3] of 2.89 µM and a GI50 [6] of 0.141 µM. It also gave a TGI [6] of 0.547 µM, a GI50 [11] of 0.218 µM and a TGI [11] of 4 µM. It also gave a GI50 [7] of 1.42 µM, a TGI [7] of 8.86 µM and a GI50 [8] of 2.16 µM. It also gave a TGI [8] of over 50 µM, a GI50 [9] of 3.23 µM and a TGI [9] of 9.62 µM. The GI50 [10] was 0.898 µM and the TGI [10] was 5.08 µM.

`COc1ccc(-c2cc(-c3ccccc3)nc(SCCCC(=O)NO)n2)cc1` gave a GI50 [3] of 1.11 µM, a TGI [3] of 3.83 µM and a GI50 [6] of 0.894 µM. The TGI [6] was 3.92 µM, the GI50 [11] was 0.995 µM and the TGI [11] was 3.11 µM. It also gave a GI50 [7] of 0.389 µM, a TGI [7] of 19.8 µM and a GI50 [8] of 0.826 µM. For the same compound, the TGI [8] was 2.54 µM, the GI50 [9] was 2.19 µM and the TGI [9] was 9.27 µM. For the same compound, the GI50 [10] was 0.964 µM and the TGI [10] was 4.95 µM.

Compound `O=C(N/N=C/c1ccc2c(c1)CCC2)c1ccccc1O` has a TGI [3] of 55.9 µM, a TGI [6] of over 100 µM and a TGI [11] of 51.9 µM. It also gave a TGI [7] of 71.9 µM, a TGI [8] of 36.6 µM and a TGI [9] of 44.7 µM. For the same compound, the TGI [10] was 38 µM.

`Cc1ccc(-c2cc(-c3ccc(C)cc3)nc(NCCNc3ccnc4cc(Cl)ccc34)n2)cc1` showed a GI50 [3] of 1.52 µM, a TGI [3] of 3.16 µM and a GI50 [6] of 1.78 µM. For the same compound, the TGI [6] was 3.65 µM, the GI50 [11] was 1.77 µM and the TGI [11] was 3.35 µM. For the same compound, the GI50 [7] was 1.88 µM, the TGI [7] was 3.88 µM and the GI50 [8] was 1.8 µM. It also gave a TGI [8] of 3.49 µM, a GI50 [9] of 1.89 µM and a TGI [9] of 3.76 µM. It also gave a GI50 [10] of 1.48 µM and a TGI [10] of 3.02 µM.
